Reference: patent publication US9365522B2, “Pyrazole amide derivative” (AMGEN INC., priority 2015, dated 2016)

Target: T1, ligand binding domain of human ROR gamma (Homo sapiens, UniProt P51449)
T1 construct: NM_001001523; expressed in transfected cells; host or cells: HEK293T
T1 sequence (P51449 247-497 isoform P51449-2): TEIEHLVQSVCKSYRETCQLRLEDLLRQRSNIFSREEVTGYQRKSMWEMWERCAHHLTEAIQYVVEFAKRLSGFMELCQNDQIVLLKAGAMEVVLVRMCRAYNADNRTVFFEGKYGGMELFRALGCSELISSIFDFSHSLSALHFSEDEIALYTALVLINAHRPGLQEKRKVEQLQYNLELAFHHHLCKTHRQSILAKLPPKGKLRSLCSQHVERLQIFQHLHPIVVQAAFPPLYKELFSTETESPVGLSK
Assay: ROR gamma reporter gene assay (GAL4-RORγ LBD luciferase, Dual-Glo)
Assay type: cell-based
Settings: HEK293T cells transfected with pM-ROR gamma, 8 concentrations 3.5 nM to 10.5 μM, 24 h incubation; read-out: result (pIC50, inhibition of RORγ transcriptional activity) (converted)
Procedure, shortened: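 HEK293T cells were co-transfected with GAL4 DBD fused to human RORγ LBD (aa 247-497), a 5×UAS firefly luciferase reporter and CMV-driven renilla luciferase, in medium with 10% charcoal-stripped FBS.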

## Cc1cncc(Cl)c1C(=O)CN(C(=O)c1cnn([C@H]2CC[C@](C)(C(=O)O)CC2)c1C(F)(F)F)[C@H]1C[C@@H]2[C@H](C1)C2(C)C [Example 387, trans-4-(4-((2-(3-chloro-5-methylpyridin-4-yl)-2-oxoethyl)((1R,3r,5S)-6,6-dimethylbicyclo[3.1.0]hexan-3-yl)carbamoyl)-5-{trifluoromethyl)-1H-pyrazol-1-yl)-1-methylcyclohexanecarboxylic acid]
  IC50: 69200 pM

## C[C@]1(C(=O)O)CC[C@H](n2ncc(C(=O)N(CC(=O)c3c(Cl)cncc3Cl)CC3(C(F)(F)F)CC3)c2Cl)CC1 [Example 388, trans-4-(5-chloro-4-((2-(3,5-dichloropyridin-4-yl)-2-oxoethyl)-((1-(trifluoromethyl)cyclopropyl)methyl)carbamoyl)pyrazol-1-yl)-1-methylcyclohexane-1-carboxylic acid]
  IC50: 72400 pM

## CC1(C)CCC(N(CC(=O)c2c(Cl)cccc2Cl)C(=O)c2cnn([C@H]3CC[C@](C)(C(=O)O)CC3)c2Cl)CC1 [Example 389, trans-4-(5-chloro-4-((2-(2,6-dichlorophenyl)-2-oxoethyl)-(4,4-dimethylcyclohexyl)carbamoyl)pyrazol-1-yl)-1-methylcyclohexane-1-carboxylic acid]
  IC50: 29500 pM

## CC1(C)[C@@H]2C[C@H](N(C[C@H](O)c3ncccc3Cl)C(=O)c3cnn([C@H]4CC[C@](C)(C(=O)O)CC4)c3C(F)(F)F)C[C@@H]21 [Example 390, trans-4-(4-((2-(3-chloropyridin-2-yl)-2-hydroxyethyl)((1R,3r,5S)-6,6-dimethylbicyclo[3.1.0]hexan-3-yl)carbamoyl)-5-(trifluoromethyl)-1H-pyrazol-1-yl)-1-methylcyclohexanecarboxylic acid]
  IC50: 331000 pM

## CC1(C)[C@@H]2C[C@H](N(C[C@@H](O)c3ncccc3Cl)C(=O)c3cnn([C@H]4CC[C@](C)(C(=O)O)CC4)c3C(F)(F)F)C[C@@H]21 [Example 391, trans-4-(4-((2-(3-chloropyridin-2-yl)-2-hydroxyethyl)((1R,3r,5S)-6,6-dimethylbicyclo[3.1.0]hexan-3-yl)carbamoyl)-5-(trifluoromethyl)-1H-pyrazol-1-yl)-1-methylcyclohexanecarboxylic acid]
  IC50: 141000 pM

## Cc1[nH]c2cccc(Cl)c2c1CCN(C(=O)c1cnn([C@H]2CC[C@](C)(C(=O)O)CC2)c1C(F)(F)F)[C@H]1C[C@@H]2[C@H](C1)C2(C)C [Example 392, trans-4-(4-((2-(4-chloro-2-methyl-1H-indol-3-yl)ethyl)((1R,3r,5S)-6,6-dimethylbicyclo[3.1.0]hexan-3-yl)carbamoyl)-5-(trifluoromethyl)-1H-pyrazol-1-yl)-1-methylcyclohexanecarboxylic acid]
  IC50: 28800 pM

## CC1(C)[C@@H]2C[C@H](N(C[C@@](C)(O)c3ccccc3Cl)C(=O)c3cnn([C@H]4CC[C@](C)(C(=O)O)CC4)c3C(F)(F)F)C[C@@H]21 [Example 393, trans-4-(4-((2-(2-chlorophenyl)-2-hydroxypropyl)((1R,3r,5S)-6,6-dimethylbicyclo[3.1.0]hexan-3-yl)carbamoyl)-5-(trifluoromethyl)-1H -pyrazol-1-yl)-1-methylcyclohexanecarboxylic acid]
  IC50: 4.57e+06 pM

## CCC(F)(CC)CN(CC(=O)c1c(Cl)cncc1Cl)C(=O)c1cnn([C@H]2CC[C@](C)(C(=O)O)CC2)c1C(F)(F)F [Example 394, trans-4-(4-((2-(3,5-dichloropyridin-4-yl)-2-oxoethyl)-(2-ethyl-2-fluorobutyl)carbamoyl)-5-(trifluoromethyl)pyrazol-1-yl)-1-methylcyclohexane-1-carboxylic acid]
  IC50: 20400 pM

## CCC(F)(CC)CN(CC(=O)c1c(Cl)cncc1Cl)C(=O)c1cnn([C@H]2CC[C@](C)(C(=O)O)CC2)c1Cl [Example 395, trans-4-(5-chloro-4-((2-(3,5-dichloropyridin-4-yl)-2-oxoethyl)-(2-ethyl-2-fluorobutyl)carbamoyl)pyrazol-1-yl)-1-methylcyclohexane-1-carboxylic acid]
  IC50: 91200 pM

## CC1(C)[C@@H]2C[C@H](N(C[C@H](O)c3sccc3Cl)C(=O)c3cnn([C@H]4CC[C@](C)(C(=O)O)CC4)c3C(F)(F)F)C[C@@H]21 [Example 396, trans-4-(4-((2-(3-chlorothiophen-2-yl)-2-hydroxyethyl)((1R,3r,5S)-6,6-dimethylbicyclo[3.1.0]hexan-3-yl)carbamoyl)-5-(trifluoromethyl)-1H-pyrazol-1-yl)-1-methylcyclohexanecarboxylic acid]
  IC50: 891000 pM

## CC1(C)[C@@H]2C[C@H](N(C[C@@H](O)c3sccc3Cl)C(=O)c3cnn([C@H]4CC[C@](C)(C(=O)O)CC4)c3C(F)(F)F)C[C@@H]21 [Example 397, trans-4-(4-((2-(3-chlorothiophen-2-yl)-2-hydroxyethyl)((1R,3r,5S)-6,6-dimethylbicyclo[3.1.0]hexan-3-yl)carbamoyl)-5-(trifluoromethyl)-1H-pyrazol-1-yl)-1-methylcyclohexanecarboxylic acid]
  IC50: 61700 pM

## CC1(C)[C@@H]2C[C@H](N(CC(=O)c3ncccc3Cl)C(=O)c3cnn([C@H]4CC[C@](C)(C(=O)O)CC4)c3C(F)(F)F)C[C@@H]21 [Example 398, trans-4-(4-((2-(3-chloropyridin-2-yl)-2-oxoethyl)((1R,3r,5S}-6,6-dimethylbicyclo[3.1.0]hexan-3-yl)carbamoyl)-5-(trifluoromethyl)-1H -pyrazol-1-yl)-1-methylcyclohexanecarboxylic acid]
  IC50: 676000 pM

## CC1(C)[C@@H]2C[C@H](N(CC(O)c3c(Cl)cccc3OC(F)F)C(=O)c3cnn([C@H]4CC[C@](C)(C(=O)O)CC4)c3C(F)(F)F)C[C@@H]21 (stereo partly drawn) [Example 399, trans-4-(4-((2-(2-chloro-6-(difluoromethoxy)phenyl)-2-hydroxyethyl)((1R,3r,5S)-6,6-dimethylbicyclo[3.1.0]hexan-3-yl)carbamoyl)-5-(trifluoromethyl)-1H-pyrazol-1-yl)-1-methylcyclohexanecarboxylic acid]
  IC50: 87100 pM

## CC1(C)[C@@H]2C[C@H](N(CC(=O)c3c(Cl)cccc3OC(F)F)C(=O)c3cnn([C@H]4CC[C@](C)(C(=O)O)CC4)c3C(F)(F)F)C[C@@H]21 [Example 400, trans-4-(4-((2-(2-chloro-6-(difluoromethoxy)phenyl)-2-oxyethyl)((1R,3r,5S)-6,6-dimethylbicyclo[3.1.0]hexan-3-yl)carbamoyl)-5-(trifluoromethyl)-1H-pyrazol-1-yl)-1-methylcyclohexanecarboxylic acid]
  IC50: 28800 pM

## CC1(C)[C@@H]2C[C@H](N(CC(O)c3ccccn3)C(=O)c3cnn([C@H]4CC[C@](C)(C(=O)O)CC4)c3C(F)(F)F)C[C@@H]21 (some centres unmarked) [Example 401]
  IC50: 2.82e+06 pM

## CC1(C)[C@@H]2C[C@H](N(CC(=O)c3c(Cl)cccc3Cl)C(=O)c3cnn([C@H]4CC[C@](C)(C(=O)O)CC4)c3C3(F)CC3)C[C@@H]21 [Example 404, trans-4-(4-((2-(2,6-dichlorophenyl)-2-oxoethyl)((1R,3r,5S)-6,6-dimethylbicyclo[3.1.0]hexan-3-yl)carbamoyl)-5-(1-fluorocyclopropyl)-1H-pyrazol-1-yl)-1-methylcyclohexanecarboxylic acid]
  IC50: 22400 pM

## CC1(C)[C@@H]2C[C@H](N(CCn3cnc4cccc(Cl)c43)C(=O)c3cnn([C@H]4CC[C@](C)(C(=O)O)CC4)c3C(F)(F)F)C[C@@H]21 [Example 405, trans-4-(4-((2-(7-chloro-1H-benzo(d)imidazol-1-yl)ethyl)((1R,3r,5S)-6,6-dimethylbicyclo[3.1.0]hexan-3-yl)carbamoyl)-5-(trifluoromethyl)-1H-pyrazol-1-yl)-1-methylcyclohexanecarboxylic acid]
  IC50: ≥ 1.05e+07 pM

## CC(C)(C)CN(CC(=O)c1c(Cl)cccc1OC(F)F)C(=O)c1cnn([C@H]2CC[C@](C)(C(=O)O)CC2)c1C(F)(F)F [Example 406, trans-4-(4-((2-(2-chloro-6-(difluoromethoxy)phenyl)-2-oxoethyl)-(2,2-dimethylpropyl)carbamoyl)-5-(trifluoromethyl)pyrazol-1-yl)-1-methylcyclohexane-1-carboxylic acid]
  IC50: 50100 pM

## Cc1ncc(Cl)c(C(O)CN(C(=O)c2cnn([C@H]3CC[C@](C)(C(=O)O)CC3)c2C(F)(F)F)[C@H]2C[C@@H]3[C@H](C2)C3(C)C)n1 (stereo partly drawn) [Example 407, trans-4-(4-((2-(5-chloro-2-methylpyrimidin-4-yl)-2-hydroxyethyl)((1R,3r,5S)-6,6-dimethylbicyclo[3.1.0]hexan-3-yl)carbamoyl)-5-(trifluoromethyl)-1H-pyrazol-1-yl)-1-methylcyclohexanecarboxylic acid]
  IC50: 479000 pM

## CC1(C)[C@@H]2C[C@H](N(CC(O)c3ncncc3Cl)C(=O)c3cnn([C@H]4CC[C@](C)(C(=O)O)CC4)c3C(F)(F)F)C[C@@H]21 (stereo partly drawn) [Example 408, trans-4-(4-((2-(5-chloropyrimidin-4-yl)-2-hydroxyethyl)((1R,3r,5S)-6,6-dimethylbicyclo[3.1.0]hexan-3-yl)carbamoyl)-5-(trifluoromethyl)-1H-pyrazol-1-yl)-1-methylcyclohexanecarboxylic acid]
  IC50: 331000 pM
